From PubChem BioAssay AID248 (DTP/NCI, 2004)
“And” between values parts separate entries of the source, which are not always exact repeats. Identical values can stand only once. Inconclusive results and toxic doses are left out. Rule as the data show it: active = T/C of 150% or more; inactive = T/C below 125%.

Tested on: L1210 leukemia ip in BDF1 mice, survival T/C
Test: NCI In Vivo Anticancer Drug Screen. Data for tumor model L1210 Leukemia (intraperitoneal) in B6D2F1 (BDF1) mice
Conditions: endpoint: mean survival time, higher = longer survival
Method in brief: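 Value reflects the ratio of survival in compound-treated mice to survival in vehicle-treated controls, with both groups carrying the same transplanted tumor.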

[1] = dose: 25.0 mg/kg/injection, schedule: Q04DX003 (ip), vehicle: saline with Tween-80
[2] = dose: 100.0 mg/kg/injection, schedule: Q01DX001 (ip), vehicle: saline
[3] = dose: 200.0 mg/kg/injection, schedule: Q01DX001 (ip), vehicle: saline
[4] = dose: 100.0 mg/kg/injection, schedule: Q01DX009 (ip), vehicle: Klucel (hydroxypropylcellulose) (HPC)
[5] = dose: 100.0 mg/kg/injection, schedule: Q04DX003 (ip), vehicle: Klucel (hydroxypropylcellulose) (HPC)
[6] = dose: 200.0 mg/kg/injection, schedule: Q04DX003 (ip), vehicle: Klucel (hydroxypropylcellulose) (HPC)
[7] = dose: 400.0 mg/kg/injection, schedule: Q04DX003 (ip), vehicle: Klucel (hydroxypropylcellulose) (HPC)
[8] = dose: 50.0 mg/kg/injection, schedule: Q01DX001 (ip), vehicle: carboxymethylcellulose (CMC)
[9] = dose: 100.0 mg/kg/injection, schedule: Q01DX001 (ip), vehicle: carboxymethylcellulose (CMC)
[10] = dose: 200.0 mg/kg/injection, schedule: Q01DX001 (ip), vehicle: carboxymethylcellulose (CMC)
[11] = dose: 400.0 mg/kg/injection, schedule: Q01DX001 (ip), vehicle: carboxymethylcellulose (CMC)
[12] = dose: 100.0 mg/kg/injection, schedule: Q04DX003 (ip), vehicle: saline with Tween-80
[13] = dose: 200.0 mg/kg/injection, schedule: Q04DX003 (ip), vehicle: saline with Tween-80
[14] = dose: 400.0 mg/kg/injection, schedule: Q04DX003 (ip), vehicle: saline with Tween-80
[15] = dose: 50.0 mg/kg/injection, schedule: Q04DX003 (ip), vehicle: saline with Tween-80

Measured: T/C

CCN(CC)CCNc1cc(C)nc(/N=C(\N)Nc2ccc(OCc3ccccc3)cc2)n1
inactive: dose: 6.25 mg/kg/injection, schedule: Q01DX009 (ip), vehicle: saline with Tween-80 100 % of control | dose: 6.25 mg/kg/injection, schedule: Q04DX003 (ip), vehicle: saline with Tween-80 103 % of control | dose: 12.5 mg/kg/injection, schedule: Q01DX009 (ip), vehicle: saline with Tween-80 98 % of control | dose: 12.5 mg/kg/injection, schedule: Q04DX003 (ip), vehicle: saline with Tween-80 101 % of control | [1] 103 % of control

CN(C)N=Nc1ccccc1[N+](=O)[O-]
inactive: dose: 30.0 mg/kg/injection, schedule: Q01DX009 (ip), vehicle: saline with Tween-80 99 % of control | dose: 50.0 mg/kg/injection, schedule: Q01DX001 (ip), vehicle: saline 103 % of control | dose: 53.0 mg/kg/injection, schedule: Q01DX009 (ip), vehicle: saline with Tween-80 118 % of control | dose: 60.0 mg/kg/injection, schedule: Q01DX009 (ip), vehicle: saline with Tween-80 106 % of control | [2] 101 % of control | dose: 119.0 mg/kg/injection, schedule: Q04DX003 (ip), vehicle: saline 107 % of control | dose: 120.0 mg/kg/injection, schedule: Q01DX009 (ip), vehicle: saline with Tween-80 113 % of control | dose: 178.0 mg/kg/injection, schedule: Q04DX003 (ip), vehicle: saline 118 % of control | dose: 267.0 mg/kg/injection, schedule: Q04DX003 (ip), vehicle: saline 92 % of control

C1=CC2CCC1NO2 (configuration not stated)
inactive: [2] 105 % of control | [3] 95 % of control | dose: 400.0 mg/kg/injection, schedule: Q01DX001 (ip), vehicle: saline 101 % of control

CN(C(=S)SSC(=S)N(C)c1ccccc1)c1ccccc1
inactive: dose: 25.0 mg/kg/injection, schedule: Q01DX009 (ip), vehicle: Klucel (hydroxypropylcellulose) (HPC) 96 % of control | dose: 50.0 mg/kg/injection, schedule: Q01DX009 (ip), vehicle: Klucel (hydroxypropylcellulose) (HPC) 101 % of control | [4] 101 % of control | [5] 105 % of control | [6] 89 % of control | [7] 93 % of control

Cn1ncc(C(N)=O)c1N
inactive: dose: 100.0 mg/kg/injection, schedule: Q01DX009 (ip), vehicle: saline 100 % of control | dose: 100.0 mg/kg/injection, schedule: Q04DX002 (ip), vehicle: saline 87 % of control | dose: 200.0 mg/kg/injection, schedule: Q01DX009 (ip), vehicle: saline 103 % of control | dose: 200.0 mg/kg/injection, schedule: Q04DX002 (ip), vehicle: saline 87 % of control | dose: 400.0 mg/kg/injection, schedule: Q01DX009 (ip), vehicle: saline 96 % of control | dose: 400.0 mg/kg/injection, schedule: Q04DX002 (ip), vehicle: saline 90 % of control

CN(C)CC/C=C1\c2ccccc2CSc2ccccc21
inactive: dose: 6.25 mg/kg/injection, schedule: Q01DX009 (ip), vehicle: saline 95 % of control | dose: 12.5 mg/kg/injection, schedule: Q01DX009 (ip), vehicle: saline 108 % of control | dose: 25.0 mg/kg/injection, schedule: Q01DX009 (ip), vehicle: saline 109 % of control | dose: 25.0 mg/kg/injection, schedule: Q04DX003 (ip), vehicle: saline 100 % of control | dose: 50.0 mg/kg/injection, schedule: Q01DX009 (ip), vehicle: saline 101 % of control | dose: 50.0 mg/kg/injection, schedule: Q04DX003 (ip), vehicle: saline 89 % of control | dose: 100.0 mg/kg/injection, schedule: Q04DX003 (ip), vehicle: saline 97 % of control

O=S(=O)(Nc1ccccc1)c1ccc([As](=O)(O)O)cc1
inactive: [2] 103 % of control

CC1=C(c2ccccc2)C(c2ccccc2)=C(C)C1=O
inactive: [8] 97 % of control | [9] 95 % of control | [10] 89 % of control | [11] 95 % of control

CCOc1cc(C)c2cccc(C)c2n1
inactive: [9] 88 % of control | dose: 100.0 mg/kg/injection, schedule: Q01DX001 (ip), vehicle: other 95 % of control | [10] 96 % of control | dose: 200.0 mg/kg/injection, schedule: Q01DX001 (ip), vehicle: other 106 % of control | [11] 98 % of control

CCOP(=S)(NN=C1CCCCC1)OCC
inactive: [2] 104 % of control | [3] 101 % of control

O=C1Cc2ccccc2O1
inactive: dose: 50.0 mg/kg/injection, schedule: Q01DX009 (ip), vehicle: saline with Tween-80 101 % of control | dose: 100.0 mg/kg/injection, schedule: Q01DX009 (ip), vehicle: saline with Tween-80 96 % of control

NCC1OC(n2cnc3c(N)ncnc32)CC1O (configuration not stated)
inactive: [8] 107 % of control | [9] 107 % of control | [10] 109 % of control | [11] 104 % of control

c1ccc(-c2cc(-c3ccncc3)c(-c3ccccc3)nn2)cc1
inactive: dose: 100.0 mg/kg/injection, schedule: Q04DX003 (ip), vehicle: gum acacia 102 % of control | dose: 200.0 mg/kg/injection, schedule: Q04DX003 (ip), vehicle: gum acacia 96 % of control | dose: 400.0 mg/kg/injection, schedule: Q04DX003 (ip), vehicle: gum acacia 96 % of control

O=C(Nc1ccc([N+](=O)[O-])cc1Cl)Oc1ccc(F)cc1
inactive: [5] 95 % of control | [6] 96 % of control | [7] 100 % of control

O=C1CCN(CCCN2CCC(=O)N(Cc3ccccc3)C2=S)C(=S)N1Cc1ccccc1
inactive: dose: 100.0 mg/kg/injection, schedule: Q04DX002 (ip), vehicle: DMSO 87 % of control | dose: 200.0 mg/kg/injection, schedule: Q04DX002 (ip), vehicle: DMSO 104 % of control | dose: 400.0 mg/kg/injection, schedule: Q04DX002 (ip), vehicle: DMSO 101 % of control

COc1cc(C2N=C(N)N=C(N)N2c2ccc(S(N)(=O)=O)cc2)cc(OC)c1OC (configuration not stated)
inactive: dose: 75.0 mg/kg/injection, schedule: Q01DX001 (ip), vehicle: saline 93 % of control | dose: 150.0 mg/kg/injection, schedule: Q01DX001 (ip), vehicle: saline 96 % of control

O=C(Cc1ccc(-c2ccccc2)cc1)c1ccccc1
inactive: dose: 100.0 mg/kg/injection, schedule: Q01DX001 (ip), vehicle: saline with Tween-80 94 % of control | dose: 200.0 mg/kg/injection, schedule: Q01DX001 (ip), vehicle: saline with Tween-80 93 % of control | dose: 400.0 mg/kg/injection, schedule: Q01DX001 (ip), vehicle: saline with Tween-80 91 % of control

N#CCN(CC#N)S(=O)(=O)c1ccccc1
inactive: [12] 96 % of control | [13] 94 % of control | [14] 101 % of control

CCCCC(=O)N/N=C/c1ccc(I)cc1
inactive: [9] 91 % of control | [10] 87 % of control | [11] 91 % of control

CC(NC(=O)NCCCl)c1ccccc1 (configuration not stated)
inactive: [1] 100 % of control | [15] 90 % of control | [12] 100 % of control and 90 % of control and 94 % of control | [13] 102 % of control

CC1=C(C)CS(=O)(=O)C1
inactive: [1] 95 % of control | [15] 101 % of control | [12] 102 % of control

Cc1ccc(NC2=CC(=O)c3ccccc3C2=O)cc1
inactive: dose: 75.0 mg/kg/injection, schedule: Q01DX001 (ip), vehicle: carboxymethylcellulose (CMC) 93 % of control | dose: 150.0 mg/kg/injection, schedule: Q01DX001 (ip), vehicle: carboxymethylcellulose (CMC) 95 % of control

Cc1cc2ccccc2cc1C
inactive: dose: 25.0 mg/kg/injection, schedule: Q04DX002 (ip), vehicle: other 102 % of control | dose: 25.0 mg/kg/injection, schedule: Q04DX002 (ip), vehicle: saline with Tween-80 119 % of control | dose: 50.0 mg/kg/injection, schedule: Q04DX002 (ip), vehicle: saline with Tween-80 101 % of control | dose: 100.0 mg/kg/injection, schedule: Q04DX002 (ip), vehicle: other 94 % of control | dose: 100.0 mg/kg/injection, schedule: Q04DX002 (ip), vehicle: saline with Tween-80 111 % of control

O=C(O)CCCc1ccc2c(c1)-c1ccccc1S2=O (configuration not stated)
inactive: [12] 106 % of control | [13] 109 % of control | [14] 110 % of control

COc1ccc(OC)c2c1CC1CC(=O)OC21C (configuration not stated)
inactive: [4] 97 % of control | [5] 97 % of control | dose: 200.0 mg/kg/injection, schedule: Q01DX009 (ip), vehicle: Klucel (hydroxypropylcellulose) (HPC) 92 % of control | [6] 97 % of control | dose: 400.0 mg/kg/injection, schedule: Q01DX009 (ip), vehicle: Klucel (hydroxypropylcellulose) (HPC) 97 % of control | [7] 97 % of control
